Source: patent US9605005B2, “Alkynyl alcohols and methods of use” (Genentech, Inc., priority 2013, dated 2017)

Columns and labels:
[1] = test system: REL-A (p65) nuclear translocation, HeLa cells; assay: REL-A (p65) nuclear translocation assay in HeLa cells (classical NF-kB signaling, TNF-α stimulated); assay type: cell-based; conditions: Homo sapiens, 0.5 h; HeLa cells, 10 ng/mL TNF-α for 30 minutes; read-out: REL-A HeLa Transloc Assay (IC50)
How it was run: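 HeLa cells were exposed to test compounds at various concentrations (0.2% DMSO final) in medium with 10% fetal bovine serum for 4.5 hours, then stimulated for 30 minutes with 10 ng/mL TNF-α. After fixation in 4% paraformaldehyde, 0.1% Triton X-100 permeabilization and staining with 400 ng/mL anti-REL-A (p65) antibody, Alexa488 secondary and DRAQ5, Opera imaging gave nuclear-to-cytoplasmic signal ratios to calculate IC50.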

[2] = molecular target: nuclear factor-kappa B (NF-kB)-inducing kinase (NIK) (Homo sapiens (Human), UniProt Q99558); assay: NIK enzyme inhibition assay (Transcreener ADP, NIK ADP-FP); assay type: biochemical; conditions: purified NIK 0.5 nM, 10 μM ATP, fluorescence polarization; read-out: NIK ADP-FP (Ki μM)
Sequence of nuclear factor-kappa B (NF-kB)-inducing kinase (NIK) (Q99558 whole entry): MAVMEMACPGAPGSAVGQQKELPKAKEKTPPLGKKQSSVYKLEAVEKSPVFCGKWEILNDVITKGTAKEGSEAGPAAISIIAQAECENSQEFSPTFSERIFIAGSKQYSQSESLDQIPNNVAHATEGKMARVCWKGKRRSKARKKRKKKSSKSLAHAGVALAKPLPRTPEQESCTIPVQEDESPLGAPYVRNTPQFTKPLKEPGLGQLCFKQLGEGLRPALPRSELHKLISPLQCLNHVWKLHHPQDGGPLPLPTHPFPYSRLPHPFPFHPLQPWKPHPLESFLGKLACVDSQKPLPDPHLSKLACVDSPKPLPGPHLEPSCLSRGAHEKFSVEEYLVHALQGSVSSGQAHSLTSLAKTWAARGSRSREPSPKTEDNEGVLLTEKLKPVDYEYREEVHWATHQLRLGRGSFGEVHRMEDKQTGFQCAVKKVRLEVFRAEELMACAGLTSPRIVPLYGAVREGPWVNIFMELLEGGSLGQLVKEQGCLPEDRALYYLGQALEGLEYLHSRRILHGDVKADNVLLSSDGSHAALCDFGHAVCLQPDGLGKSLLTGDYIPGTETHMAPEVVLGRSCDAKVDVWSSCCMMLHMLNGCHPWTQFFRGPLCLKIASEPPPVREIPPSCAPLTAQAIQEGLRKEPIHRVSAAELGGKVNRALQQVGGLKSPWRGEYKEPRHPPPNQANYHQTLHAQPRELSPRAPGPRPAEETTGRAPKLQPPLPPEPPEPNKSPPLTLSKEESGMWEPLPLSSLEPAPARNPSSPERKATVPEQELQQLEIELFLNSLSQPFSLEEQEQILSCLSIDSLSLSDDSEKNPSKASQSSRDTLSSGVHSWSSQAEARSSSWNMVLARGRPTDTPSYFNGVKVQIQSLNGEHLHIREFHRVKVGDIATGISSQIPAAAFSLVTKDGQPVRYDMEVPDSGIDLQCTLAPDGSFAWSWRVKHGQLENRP

[3] = test system: p52 (NF-kB2) nuclear translocation, HeLa cells; assay: p52 (NF-kB2) nuclear translocation assay in HeLa cells (non-classical NF-kB signaling, anti-lymphotoxin beta receptor antibody stimulated); assay type: cell-based; conditions: Homo sapiens, 100 ng/mL anti-lymphotoxin beta receptor antibody for 5 hours, read-out: p52 HeLa Transloc Assay (IC50)
How it was run: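 HeLa cells in 10% FBS medium were treated with compound (0.2% DMSO final) and stimulated with 100 ng/mL anti-lymphotoxin beta receptor antibody for 5 h. Fixed cells were immunostained for p52 and imaged with DRAQ5 nuclear stain. Translocation is the nuclear to cytoplasmic intensity ratio, and IC50 values are in micromolar.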

| Structure (SMILES) | IC50 [1] [nM] | Ki [2] [nM] | IC50 [3] [nM] |
| --- | --- | --- | --- |
| C[C@H]1CCc2c1c(C(N)=O)nn2-c1cccc(C#C[C@]2(O)CCN(C)C2=O)c1 [Compound 110, (4S)-1-[3-[2-[(3R)-3-hydroxy-1-methyl-2-oxo-pyrrolidin-3-yl]ethynyl]phenyl]-4-methyl-5,6-dihydro-4H-cyclo-penta[c]pyrazole-3-carbox-amide] | 20000 | 0.55 | 244 |
| CN1CC[C@@](O)(C#Cc2cccc(-n3nc(C(N)=O)c4ccc(Cl)nc43)c2)C1=O [Compound 153, 6-chloro-1-[3-[2-[(3R)-3-hy-droxy-1-methyl-2-oxo-pyrroli-din-3-yl]ethynyl]phenyl] pyrazolo[3,4-b]pyridine-3-carboxamide] | 2000 | 0.52 | 132 |
| CN1CC[C@@](O)(C#Cc2cccc(-c3nc(C(N)=O)n4ccncc34)c2)C1=O [Compound 92, 1-[3-[2-[(3R)-3-hydroxy-1-methyl-2-oxo-pyrrolidin-3-yl]ethynyl]phenyl]imidazo[1,5-a]pyrazine-3-carboxamide] | 20000 | 0.37 | 25.9 |
| CN1CC[C@@](O)(C#Cc2cccc(-n3nc(C(N)=O)c4cc(F)cnc43)c2)C1=O [Compound 75, 5-fluoro-1-[3-[2-[(3R)-3-hy-droxy-1-methyl-2-oxo-pyrroli-din-3-yl]ethynyl]phenyl] pyrazolo[3,4-b]pyridine-3-carboxamide] | 20000 | 0.24 | 56.9 |
| COc1ncc2c(C(N)=O)nn(-c3cccc(C#C[C@]4(O)CCN(C)C4=O)c3)c2n1 [Compound 160, 1-[3-[2-[(3R)-3-hydroxy-1-methyl-2-oxo-pyrrolidin-3-yl]ethynyl]phenyl]-6-methoxy-pyrazolo[3,4-d]pyrimidine-3-carboxamide] | 20000 | 0.13 | 66.8 |
| COc1cc(C#C[C@]2(O)CCN(C)C2=O)cc(-n2nc(C(N)=O)c3cccnc32)c1 [Compound 73, 1-[3-[2-[(3R)-3-hydroxy-1-methyl-2-oxo-pyrrolidin-3-yl]ethynyl]-5-methoxy-phe-nyl]pyrazolo[3,4-b]pyridine-3-carboxamide] | 20000 | 1.05 | 119 |
| CN1CC[C@@](O)(C#Cc2cccc(-n3nc(C(N)=O)c4cc(-c5cnn(C)c5)cnc43)c2)C1=O [Compound 104, 1-[3-[2-[(3R)-3-hydroxy-1-methyl-2-oxo-pyrrolidin-3-yl]ethynyl]phenyl]-5-(1-meth-ylpyrazol-4-yl)pyrazolo[3,4-b]pyridine-3-carboxamide] | 2000 | 0.1 | 26.7 |
| COc1ccc2c(C(N)=O)nn(-c3cccc(C#C[C@]4(O)CCN(C)C4=O)c3)c2n1 [Compound 154, 1-[3-[2-[(3R)-3-hydroxy-1-methyl-2-oxo-pyrrolidin-3-yl]ethynyl]phenyl]-6-methoxy-pyrazolo[3,4-b]pyridine-3-carboxamide] | 2000 | 0.05 | 33.9 |
| COc1ccc2c(C(N)=O)nn(-c3cccc(C#C[C@]4(O)CCN(C)C4=O)c3)c2c1 [Compound 22, 1-[3-[2-[(3R)-3-hydroxy-1-methyl-2-oxo-pyrrolidin-3-yl]ethynyl]phenyl]-6-methoxy-indazole-3-carboxamide] | 20000 | 0.34 | 94.8 |
| CN1CC[C@@](O)(C#Cc2cccc(-n3nc(C(N)=O)c4c(Cl)cccc43)c2)C1=O [Compound 39, 4-chloro-1-[3-[2-[(3R)-3-hydroxy-1-methyl-2-oxo-pyrroli-din-3-yl]ethynyl]phenyl] indazole-3-carboxamide] | 20000 | 1.21 | 108 |
| CN1CC[C@@](O)(C#Cc2cccc(-c3nc(C(N)=O)n4cc(Cl)ccc34)c2)C1=O [Compound 93, 6-chloro-1-[3-[2-[(3R)-3-hy-droxy-1-methyl-2-oxo-pyrroli-din-3-yl]ethynyl]phenyl] imidazo[1,5-a]pyridine-3-carboxamide] | 20000 | 0.06 | 15.3 |
| CN1CC[C@@](O)(C#Cc2cccc(-n3nc(C(N)=O)c4c3CCN(c3nccs3)C4)c2)C1=O [Compound 122, 1-[3-[2-[(3R)-3-hydroxy-1-methyl-2-oxo-pyrrolidin-3-yl]ethynyl]phenyl]-5-thiazol-2-yl-6,7-dihydro-4H-pyra-zolo[4,3-c]pyridine-3-carbox-amide] | 20000 | 0.29 | 266 |
| CN1CC[C@@](O)(C#Cc2cccc(-n3nc(C(N)=O)c4c3OCCC4)c2)C1=O [Compound 12, 1-[3-[2-[(3R)-3-hydroxy-1-methyl-2-oxo-pyrrolidin-3-yl]ethynyl]phenyl]-5,6-dihydro-4H-pyrano[2,3-c]pyrazole-3-carboxamide] | 20000 | 1.56 | 187 |
| CN1CC[C@@](O)(C#Cc2cccc(-n3nc(C(N)=O)c4ccc(-c5cnn(C)c5)nc43)c2)C1=O [Compound 156, 1-[3-[2-[(3R)-3-hydroxy-1-methyl-2-oxo-pyrrolidin-3-yl]ethynyl]phenyl]-6-(1-meth-ylpyrazol-4-yl)pyrazolo[3,4-b] pyridine-3-carboxamide] | 2000 | 0.09 | 95.7 |
| CCOc1cc2c(cn1)c(C(N)=O)nn2-c1cccc(C#C[C@]2(O)CCN(C)C2=O)c1 [Compound 136, 6-ethoxy-1-[3-[2-[(3R)-3-hy-droxy-1-methyl-2-oxo-pyrroli-din-3-yl]ethynyl]phenyl] pyrazolo[4,3-c]pyridine-3-carboxamide] | 20000 | 0.39 | 72.6 |
| CN1CC[C@@](O)(C#Cc2ccnc(-n3nc(C(N)=O)c4ccc(F)cc43)c2)C1=O [Compound 63, 6-fluoro-1-[4-[2-[(3R)-3-hy-droxy-1-methyl-2-oxo-pyrroli-din-3-yl]ethynyl]-2-pyri-dyl]indazole-3-carboxamide] | 2000 | 0.1 | 27 |
| Cc1cc2c(C(N)=O)nn(-c3cccc(C#C[C@]4(O)CCN(C)C4=O)c3)c2cn1 [Compound 149, 1-[3-[2-[(3R)-3-hydroxy-1-methyl-2-oxo-pyrrolidin-3-yl]ethynyl]phenyl]-5-methyl-pyrazolo[3,4-c]pyridine-3-carboxamide] | 20000 | 1.08 | 215 |
| Cc1nnc([C@](C)(O)C#Cc2cccc(-n3nc(C(N)=O)c4cccnc43)c2)o1 [Compound 67, 1-[3-[(3R)-3-hydroxy-3-(5-methyl-1,3,4-oxadiazol-2-yl)but-1-ynyl]phenyl]pyrazo-lo[3,4-b]pyridine-3-carbox-amide] | 20000 | 3.14 | 893 |
| CN1CC[C@@](O)(C#Cc2ccc(F)c(-c3nc(C(N)=O)n4cc(Cl)ccc34)c2)C1=O [Compound 186, 6-chloro-1-[2-fluoro-5-[2-[(3R)-3-hydroxy-1-methyl-2-oxo-pyrrolidin-3-yl]ethynyl]phenyl]imidazo[1,5-a] pyridine-3-carboxamide] | > 2000 | 0.1 | 36 |
| CN1CC[C@@](O)(C#Cc2cccc(-c3nc(C(N)=O)n4c3CCCC4)c2)C1=O [Compound 177, (R)-1-(3-((3-hydroxy-1-methyl-2-oxopyrrolidin-3-yl)ethynyl)phenyl)-5,6,7,8-tetrahydroimidazo[1,5-a]pyridine-3-carboxamide] | > 2000 | 0.11 | 150 |
| CN1CC[C@@](O)(C#Cc2ccnc(-n3nc(C(N)=O)c4cc(Br)ccc43)c2)C1=O [Compound 66, 5-bromo-1-[4-[2-[(3R)-3-hy-droxy-1-methyl-2-oxo-pyrroli-din-3-yl]ethynyl]-2-pyri-dyl]indazole-3-carboxamide] | 20000 | 0.15 | 55 |
| CN1CC[C@@](O)(C#Cc2cccc(-c3nc(C(N)=O)n4ccc(C#N)cc34)c2)C1=O [Compound 90, 7-cyano-1-[3-[2-[(3R)-3-hy-droxy-1-methyl-2-oxo-pyrroli-din-3-yl]ethynyl]phenyl] imidazo[1,5-a]pyridine-3-car-boxamide] | 2000 | 0.05 | 63.4 |
| Cc1cc([C@](C)(O)C#Cc2ccnc(-n3nc(C(N)=O)c4c3CCCC4)c2)no1 [Compound 60, 1-[4-[(3R)-3-hydroxy-3-(5-methylisoxazol-3-yl)but-1-ynyl]-2-pyridyl]-4,5,6,7-tetra-hydroindazole-3-carbox-amide] | 20000 | 13.7 | 2310 |
| N#Cc1cc2c(cn1)c(C(N)=O)nn2-c1cccc(C#C[C@@]2(O)CCc3cccnc32)c1 [Compound 135, 6-cyano-1-[3-[2-[(7S)-7-hy-droxy-5,6-dihydrocyclopen-ta[b]pyridin-7-yl]ethynyl]phe-nyl]pyrazolo[4,3-c]pyridine-3-carboxamide] | 20000 | 0.7 | 91.4 |
| CN1CC[C@@](O)(C#Cc2cccc(-n3nc(C(N)=O)c4cnc(Cl)cc43)c2)C1=O [Compound 76, 6-chloro-1-[3-[2-[(3R)-3-hy-droxy-1-methyl-2-oxo-pyrroli-din-3-yl]ethynyl]phenyl] pyrazolo[4,3-c]pyridine-3-carboxamide] | 8000 | 0.05 | 41.2 |
